These results are taken from patent US5610174A, “Use of α1A -selective adrenoceptor agonists for the treatment of urinary incontinence” (priority 1995, dated 1997).

For test [1], the target named is T1, human histamine H1 receptor (Homo sapiens, UniProt P35367).
T1 construct: expressed in transfected cells; host or cells: COS-7 (plasmid pcEXV-H1, ATCC 75346)
Description: Radioligand binding at cloned human histamine H1. Conditions: [3H]mepyramine; for Ki: read-out: pKi H1 (converted). The procedure:
Human Histamine H1 Receptor
The coding sequence of the human histamine H1 receptor, homologous to the bovine H1 receptor, was obtained from a human hippocampal cDNA library, and was cloned into the eukaryotic expression vector pCEXV-3. The plasmid DNA for the H1 receptor is designated pcEXV-H1, and was deposited on Nov. 6, 1992 under ATCC Accession No. 75346. This construct was transfected into COS-7 cells by the DEAE-dextran method. Cells were harvested after 72 hours and lysed by sonication in 5 mM Tris-HCl, 5 mM EDTA, pH 7.5. The cell lysates were centrifuged at 1000 rpm for 5 min at 4° C., and the supernatant was centrifuged at 30,000×g for 20 min. at 4° C. The pellet was suspended in 37.8 mM NaHPO4, 12.2 mM KH2 PO4, pH 7.5. […]. The bound radioligand was separated by filtration through GF/B filters using a cell harvester.

The target of test [2] is T2, human 5-HT1Dα receptor (Homo sapiens, UniProt P28221).
T2 construct: expressed in transfected cells; host or cells: LM(tk-) clonal cell line, designated Ltk-8-30-84, ATCC CRL 10421 (cell lysates)
The test can be described thus: Radioligand binding at human 5-HT1Dα. The procedure:
(§1) Human Serotonin Receptors
(§2) 5-HT1Dα, 5-HT1Dβ, 5-HT1E, 5-HT1F, and 5-HT7 Receptors: The cell lysates of LM(tk-) clonal cell line stably transfected with the genes encoding each of these 5-HT receptor-subtypes were prepared as described above. The cell line for the 5-HT1Dαreceptor, designated as Ltk-8-30-84, was deposited on Apr. […] The cell for the 5-HT1Dβ receptor, designated as Ltk-11, was deposited on Apr. […] The cell line for the 5-HT1E receptor, designated 5-HT1E -7, was deposited on Nov. […] The cell line for the 5-HT1F receptor, designated L-5-HT1F, was deposited on Dec. […] The cell line for the 5-HT7 receptor, designated as L-5-HT-4B, was deposited on Oct. […] These preparations were suspended in 50 mM Tris-HCl buffer (pH 7.4 at 37° C.) containing 10 mM MgCl2, 0.2 mM EDTA, 10 μM pargyline, and 0.1% ascorbate. […] Nonspecific binding was determined in the presence of 10 μM serotonin. The bound radioligand was separated by filtration through GF/B filters using a cell harvester.

In test [3] the target is T3, human 5-HT1Dβ receptor (Homo sapiens, UniProt P28222).
T3 construct: expressed in transfected cells; host or cells: LM(tk-) clonal cell line, designated Ltk-11, ATCC CRL 10422 (cell lysates)
Description: Radioligand binding at human 5-HT1Dβ. The procedure: as §1, §2

Test [4] addresses T4, human α2A adrenoceptor (Homo sapiens, UniProt P08913).
T4 construct: expressed in transfected cells; host or cells: LM(tk-)
T4 sequence (P08913 1-465): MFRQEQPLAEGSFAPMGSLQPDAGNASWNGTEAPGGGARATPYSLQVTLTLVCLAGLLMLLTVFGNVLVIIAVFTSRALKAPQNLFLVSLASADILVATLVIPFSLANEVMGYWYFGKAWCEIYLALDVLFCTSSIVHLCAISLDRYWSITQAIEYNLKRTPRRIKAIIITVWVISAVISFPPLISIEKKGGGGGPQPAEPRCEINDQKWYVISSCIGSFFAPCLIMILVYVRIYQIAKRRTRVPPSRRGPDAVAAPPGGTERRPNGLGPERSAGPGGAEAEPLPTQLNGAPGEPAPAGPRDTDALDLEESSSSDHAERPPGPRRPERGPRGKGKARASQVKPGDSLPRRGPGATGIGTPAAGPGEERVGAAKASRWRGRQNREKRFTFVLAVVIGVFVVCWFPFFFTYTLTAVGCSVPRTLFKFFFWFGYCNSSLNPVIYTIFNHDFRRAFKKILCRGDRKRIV
The test can be described thus: Radioligand binding ([3H]rauwolscine) at cloned human α2A. The procedure:
To determine the affinity of compounds at the α2 receptors, LM(tk-) cell lines stably transfected with the genes encoding the α2A, α2B, and α2C receptors were used. Cell lysates were prepared as described above (see Radioligand Binding Assays), and suspended in 25 mM glycylglycine buffer (pH 7.6 at room temperature). Equilibrium competition binding assays were performed using [^3 H] rauwolscine (0.5 nM), and nonspecific binding was determined by incubation with 10 μM phentolamine. The bound radioligand was separated by filtration through GF/B filters using a cell harvester.

Test [5] deals with T5, dog BN, female (α1-adrenoceptor) (Canis lupus, UniProt A0A8I3NK63).
T5 sequence (A0A8I3NK63 1-466): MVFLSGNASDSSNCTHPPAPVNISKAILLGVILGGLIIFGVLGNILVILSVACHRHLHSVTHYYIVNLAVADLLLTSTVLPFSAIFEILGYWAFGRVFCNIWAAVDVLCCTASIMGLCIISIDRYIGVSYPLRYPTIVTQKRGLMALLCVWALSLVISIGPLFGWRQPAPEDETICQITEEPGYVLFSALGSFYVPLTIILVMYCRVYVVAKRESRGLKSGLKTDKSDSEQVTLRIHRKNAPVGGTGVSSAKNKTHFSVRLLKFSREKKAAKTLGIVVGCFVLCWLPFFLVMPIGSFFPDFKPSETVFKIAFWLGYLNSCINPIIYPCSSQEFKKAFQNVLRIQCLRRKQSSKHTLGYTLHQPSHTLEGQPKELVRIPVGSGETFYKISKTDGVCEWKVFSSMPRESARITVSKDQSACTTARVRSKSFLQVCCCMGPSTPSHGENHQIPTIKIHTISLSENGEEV
The test can be described thus: Contractile study in isolated female dog bladder neck. The following applies: for pEC50 Bladder Neck: agonist contraction; for pEC50 Bladder Neck / sensitivity of the contraction to prazosin, bladder neck: female dog bladder neck. An excerpt: In addition, similar studies were done using bladder neck tissue from female dogs. In order to identify the specific receptor subtype in each tissue, the pharmacological profile was compared to the profiles for these same drugs at the cloned human α1A, α1B, or α1C subtypes.
Tissue samples from the proximal urethra of male humans and male and female rabbits, as well as tissue samples from both the proximal urethra and bladder neck of male and female dogs were cut into transverse strips (3×10 mm) and suspended under 0.5 g tension in Krebs' physiological buffer at 37° C. To determine agonist potency (pEC50 )and antagonist affinity constants (pKB), concentration-effect curves to the non-selective agonist phenylepherine were constructed in the absence and in the presence of increasing concentrations of the antagonist. Up to four sequential curves were constructed in each tissue. Antagonists were allowed to equilibrate for 1h before each concentration-effect curve, and the drugs were completely washed out in between successive curves. In each experiment, one tissue served as a "time control", in which no antagonist was added so that changes in tissue sensitivity could be assessed as a function of time. […] In instances in which a single concentration of antagonist was used, pKB values were determined by the equation: […], where CR is defined as the ratio of the agonist EC50 in the presence of the antagonist to that in the absence of the antagonist.

The mark [6] stands for this setting: Table 3, agonists, read-out: pKi α2A (converted).

Read-outs that look alike come from different tables or passages of the source.

T3 sequence (P28222 whole entry): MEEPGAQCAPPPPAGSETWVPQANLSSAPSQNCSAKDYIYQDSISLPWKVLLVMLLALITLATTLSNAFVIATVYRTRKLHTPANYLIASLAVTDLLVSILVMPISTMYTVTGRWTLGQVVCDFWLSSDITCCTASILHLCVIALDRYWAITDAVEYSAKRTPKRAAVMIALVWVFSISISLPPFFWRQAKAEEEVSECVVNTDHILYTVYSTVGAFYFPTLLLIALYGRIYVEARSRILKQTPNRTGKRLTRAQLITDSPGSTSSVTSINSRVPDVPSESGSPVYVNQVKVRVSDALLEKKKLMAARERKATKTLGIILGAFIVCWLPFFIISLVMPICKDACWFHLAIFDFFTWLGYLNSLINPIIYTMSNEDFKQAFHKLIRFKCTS
T1 sequence (P35367 whole entry): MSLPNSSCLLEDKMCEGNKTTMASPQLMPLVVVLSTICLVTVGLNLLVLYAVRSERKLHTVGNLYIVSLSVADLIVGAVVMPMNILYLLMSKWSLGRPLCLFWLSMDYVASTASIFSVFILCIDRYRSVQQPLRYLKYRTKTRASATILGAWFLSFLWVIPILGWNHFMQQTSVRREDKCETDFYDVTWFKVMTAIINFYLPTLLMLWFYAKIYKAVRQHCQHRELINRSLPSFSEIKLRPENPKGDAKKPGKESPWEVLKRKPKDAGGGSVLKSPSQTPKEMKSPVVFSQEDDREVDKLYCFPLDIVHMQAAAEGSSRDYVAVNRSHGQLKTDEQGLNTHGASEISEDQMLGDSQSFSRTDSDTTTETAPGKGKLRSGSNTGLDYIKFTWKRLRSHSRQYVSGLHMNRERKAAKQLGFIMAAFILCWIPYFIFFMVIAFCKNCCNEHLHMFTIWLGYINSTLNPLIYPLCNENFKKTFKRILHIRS
T2 sequence (P28221 whole entry): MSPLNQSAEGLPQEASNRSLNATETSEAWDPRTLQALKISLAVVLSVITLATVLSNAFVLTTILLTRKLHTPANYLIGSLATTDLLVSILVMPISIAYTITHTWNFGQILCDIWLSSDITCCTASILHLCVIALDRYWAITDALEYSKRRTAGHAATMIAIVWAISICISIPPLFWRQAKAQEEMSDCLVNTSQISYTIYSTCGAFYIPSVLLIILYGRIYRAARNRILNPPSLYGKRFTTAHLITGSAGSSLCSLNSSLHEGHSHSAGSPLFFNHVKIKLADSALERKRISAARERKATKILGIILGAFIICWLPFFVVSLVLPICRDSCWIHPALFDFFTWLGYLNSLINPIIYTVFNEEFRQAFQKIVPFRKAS

Regarding `COc1ccc(SC)c2c1C[C@@H]1[C@@H](C2)OCCN1C` (relative stereo) [SDZ NVI-085, (±)-trans-4-Methyl-6-methoxy-9-thiomethoxy-3,4,4a, 5,10,10a-hexahydro-2H-naphtho[2,3-b][1,4]oxazine], the Ki in test [1] is 5010 nM; in test [2], 12.6 nM; in test [3] it was 20 nM; in test [4] it was 50.1 nM.

With `CS(=O)(=O)Nc1c(O)ccc2c1CCCC2C1=NCCN1` (racemic) [Compound A-61603, (±)-N-[5-(4,5-Dihydro-1H-imidazol-2-yl)-2-hydroxy-5,6,7,8-tetra-hydronaphthalen-1-yl]methanesulfonamide], the “pEC50 Bladder Neck” value in test [5] came out at 6.8. Further, the “sensitivity of the contraction to prazosin, bladder neck” value in test [5] is on record as “highly sensitive to prazosin”. In addition, the Ki in test [1] is 50100 nM; in test [2] ([3H]serotonin, read-out: pKi 5-HT1Dα (converted)), 2510 nM; in test [3] ([3H]serotonin, read-out: pKi 5-HT1Dβ (converted)), 6310 nM.

Regarding `CN[C@@H](C)[C@H](O)c1ccccc1` [(-)-ephedrine], in test [4] (setting [6]), the Ki is 794 nM.

As to `COc1ccccc1N1CCN(CCCNc2c(C)c(=O)n(C)c(=O)n2C)CC1` [Compound 5-MU], the “pKB Dog BN Female” value in test [5] (versus phenylephrine-induced contraction) is 8.8.

Turning to `COc1ccc(OC)c(C(O)CN)c1` (racemic) [ST-1059, (±)-2-Amino-1-(2, 5 dimethoxyphenyl) ethanol], the Ki in test [4] (setting [6]) is 2000 nM.

Turning to `C[C@H](N)[C@H](O)c1ccccc1` [(-)-norephedrine], the Ki in test [4] (setting [6]) is 501 nM.

Take `CNCCc1ccc(O)c(NS(C)(=O)=O)c1` [SK&F 102652]: in test [5], the “pEC50 Bladder Neck” value came to 5.7 and the “sensitivity of the contraction to prazosin, bladder neck” value was “highly sensitive to prazosin”. The “pKi H1” value in test [1] came to 4.3. In addition, the “pKi 5-HT1Dα” value in test [2] ([3H]serotonin) came to 5.9. In test [3] ([3H]serotonin), the “pKi 5-HT1Dβ” value was determined as 5.5. In addition, the “pKi α2A” value in test [4] (Table 3, agonists) worked out at 6.4.
